According to patent publication US20110319352A1, “Compounds That Bind Oxysterol Binding Proteins, and Methods of Use Thereof” (President and Fellows of Harvard College, priority 2008, published 2011):

Assays:
[1] = system: HCT-116 p21−/− cells with siRNA knockdown of p53; experiment: GI50 after siRNA knockdown of p53; assay type: cell-based; conditions: data not shown
Source text: [5] […] This shared p21 differential cytotoxicity supports the idea of a common CRAM mechanism of action and likely similar target. […] However, caution has to be exercised in concluding that compounds found to be selective for p21 deficient HCT-116 cells are truly synthetic lethal with p21. It was recently reported that compounds shown to be hypersensitive to HCT-116 p21^−/− cells was actually due to an overexpression of p53 in that cell line. Subsequent siRNA knockdown of p53 eliminated the apparent p21 synthetic lethality.

[2] = system: pERK1/2 in HCT-116 cells; experiment: Western blot of pERK1/2; assay type: cell-based; conditions: cephalostatin 1 50 nM, 25-OHC 20 μM 12 h
Protocol: FIG. 21 depicts Western blot and densitometry analysis of pERK1/2 in HCT-116 cells during treatment with 50 nM cephalostatin 1. 25-OHC (20 μM) and okadaic acid (OKA, 10 nM) treatments were for 12 h and 24 h, respectively.
As another test of whether CRAMs perturb a known OSBP function, it was determined whether CRAMs induce changes to the phosphorylation state of ERK1/2. As mentioned above, 25-OHC binds OSBP and causes disruption of a complex between OSBP and the phosphatases HePTP and PP2A. This blocks dephosphorylation of pERK1/2, leading to a persistence of pERK1/2. Opposing this effect is cholesterol, which binds OSBP, inducing formation of the OSBP-HePTP-PP2A ternary complex, causing ERK1/2 dephosphorylation (FIG. 13).

[3] = target: T1, ORP4-myc-his (Homo sapiens, UniProt Q969R2); experiment: competitive binding assay, displacement of [3H]-25-OHC from ORP4; conditions: 20 nM [3H]-25-OHC, ORP4-myc-his S100 lysate (HEK-293T), 16 h at 4° C.; read-out: Ki, displacing [3H]-25-OHC from ORP4
T1 construct: made in house; host or cells: HEK-293T (crude S100 lysate, not purified)
Protocol: (§1) It has been determined that CRAMs inhibit the binding of radiolabelled 25-OHC ([^3H]-25-OHC) to recombinant OSBP-myc-his and ORP4-myc-his overexpressed in HEK-293T lysate (FIG. 18). It is known that 25-hydroxycholesterol is a high affinity ligand for OSBP and ORP4. Increasing concentrations of CRAMs or OSW-1 analogs were incubated with 20 nM [^3H]-25-OHC in OSBP-myc-his or ORP4-myc-his S100 lysate for 16 h at 4° C. after which unbound sterol was removed using charcoal-dextran and the bound sterol quantified by LCS (liquid scintillation counting).
(§2) These experiments provide evidence that CRAMs are ligands of OSBP and ORP4, and in the case of 1 and 2, they are high affinity ligands.
(§3) To measure the Kis of CRAMs to OSBP and ORP4 reported above, a previously reported dextran-coated charcoal assay was adapted into a 96-well format. […] To solve these limitations a binding SPA (scintillation proximity assay) for OSBP/ORPs (FIG. 26) will be developed.

[4] = system: OSBP protein levels; experiment: OSBP protein levels by western blot; assay type: cell-based
Protocol: One unanticipated discovery from the IF studies was that, after several hours, CRAM treatment of cells caused a significant reduction in the intensity of the OSBP fluorescent signal. This could mean that CRAMs are inducing a reduction in OSBP protein levels: an effect not observed with 25-OHC. The amount of OSBP protein in cells exposed to CRAMs was measured by western blot. […] Cephalostatin 1 induced a 70% reduction in OSBP at 12 h, and OSW-1 caused a 69% reduction in OSBP at 24 h. […] This supports a situation where reduction of OSBP levels by 1 and 2 is a result of a proteasome-dependent degradation process. One possible scenario is that 1 and 2 are also causing protein level reductions of ORPs and this is the source of cytotoxicity of CRAMs.

[5] = system: U87-MG; conditions: cited from earlier work
[6] = system: NCI-60; conditions: read-out: GI50, average against the NCI-60; cited from earlier work
[7] = target: T2, recombinant OSBP-myc-his (Homo sapiens, UniProt P22059); experiment: competitive binding assay, displacement of [3H]-25-OHC from OSBP (charcoal-dextran, liquid scintillation counting); conditions: 20 nM [3H]-25-OHC, OSBP-myc-his S100 lysate (HEK-293T), 16 h at 4° C.; read-out: Ki, displacing OSBP-bound [3H]-25-OHC
T2 construct: made in house; host or cells: HEK-293T (crude S100 lysate, not purified)
T2 sequence (P22059 1-807): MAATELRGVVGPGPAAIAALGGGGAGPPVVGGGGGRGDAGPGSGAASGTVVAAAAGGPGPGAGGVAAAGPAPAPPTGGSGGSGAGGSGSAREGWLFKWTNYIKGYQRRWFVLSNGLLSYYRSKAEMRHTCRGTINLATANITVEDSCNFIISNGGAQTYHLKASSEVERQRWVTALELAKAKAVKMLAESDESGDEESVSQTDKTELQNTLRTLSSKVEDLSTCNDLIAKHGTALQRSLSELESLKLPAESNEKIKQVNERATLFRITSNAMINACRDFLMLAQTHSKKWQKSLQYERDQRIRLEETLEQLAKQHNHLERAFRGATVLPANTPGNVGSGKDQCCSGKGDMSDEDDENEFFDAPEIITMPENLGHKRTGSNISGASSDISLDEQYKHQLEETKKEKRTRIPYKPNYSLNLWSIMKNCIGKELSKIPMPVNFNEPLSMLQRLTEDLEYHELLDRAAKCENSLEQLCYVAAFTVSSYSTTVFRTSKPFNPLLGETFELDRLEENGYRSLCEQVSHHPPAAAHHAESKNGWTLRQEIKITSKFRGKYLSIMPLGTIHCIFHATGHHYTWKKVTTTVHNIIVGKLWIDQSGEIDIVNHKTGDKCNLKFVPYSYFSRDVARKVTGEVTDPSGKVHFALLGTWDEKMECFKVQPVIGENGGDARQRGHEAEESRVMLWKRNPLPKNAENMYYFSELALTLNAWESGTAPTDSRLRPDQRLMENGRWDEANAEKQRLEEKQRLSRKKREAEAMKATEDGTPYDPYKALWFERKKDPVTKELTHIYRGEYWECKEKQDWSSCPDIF
Protocol: as §1, §2, §3

[8] = system: normal lymphocytes; conditions: cited from earlier work
[9] = system: HCT-116 p21−/− shNT and shOSBP cells; experiment: CRAM cytotoxicity after shRNA knockdown of OSBP, HCT-116 p21−/−; assay type: cell-based; conditions: OSBP knocked down by 89% (FIG. 8)
[10] = system: CLL (chronic lymphocytic leukemia) cells taken from patients; conditions: read-out: GI50, CLL cells refractory to fludarabine; cited from earlier work

T1 sequence (Q969R2 whole entry): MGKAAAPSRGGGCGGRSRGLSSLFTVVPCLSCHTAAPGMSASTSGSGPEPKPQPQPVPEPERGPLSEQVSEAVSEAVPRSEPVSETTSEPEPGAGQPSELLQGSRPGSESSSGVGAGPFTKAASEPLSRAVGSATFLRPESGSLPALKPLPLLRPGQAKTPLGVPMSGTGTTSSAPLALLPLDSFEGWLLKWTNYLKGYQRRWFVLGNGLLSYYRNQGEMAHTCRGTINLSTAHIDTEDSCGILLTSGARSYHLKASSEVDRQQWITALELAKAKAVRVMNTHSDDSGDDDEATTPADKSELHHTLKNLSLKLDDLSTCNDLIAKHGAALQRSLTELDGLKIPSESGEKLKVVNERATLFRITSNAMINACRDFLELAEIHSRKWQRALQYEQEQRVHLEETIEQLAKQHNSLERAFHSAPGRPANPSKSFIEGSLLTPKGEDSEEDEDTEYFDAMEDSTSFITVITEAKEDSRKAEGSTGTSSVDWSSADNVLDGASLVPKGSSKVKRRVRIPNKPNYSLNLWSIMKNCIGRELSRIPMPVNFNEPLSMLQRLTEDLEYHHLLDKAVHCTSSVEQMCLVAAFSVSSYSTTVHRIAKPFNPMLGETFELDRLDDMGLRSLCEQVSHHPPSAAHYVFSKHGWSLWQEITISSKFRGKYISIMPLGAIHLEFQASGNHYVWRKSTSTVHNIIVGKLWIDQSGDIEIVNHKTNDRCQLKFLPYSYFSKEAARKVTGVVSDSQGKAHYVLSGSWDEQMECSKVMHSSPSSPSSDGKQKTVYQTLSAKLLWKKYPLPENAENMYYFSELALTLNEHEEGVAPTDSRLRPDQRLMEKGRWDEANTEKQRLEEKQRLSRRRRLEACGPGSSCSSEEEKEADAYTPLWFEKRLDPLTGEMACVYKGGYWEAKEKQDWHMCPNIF

## COc1ccc(C(=O)O[C@H]2[C@H](O[C@@H]3[C@@H](OC(C)=O)[C@H](O[C@H]4C[C@H]5[C@@H]6CC=C7C[C@@H](O)CC[C@]7(C)[C@H]6CC[C@]5(C)[C@@]4(O)[C@H](C)C(=O)CCC(C)C)OC[C@@H]3O)OC[C@@H](O)[C@@H]2O)cc1 [OSW-1]
[1]
  GI50 after siRNA knockdown of p53: does not alter the GI50
[2]
  pERK1/2 levels: increase in pERK1/2 comparable to cephalostatin 1
[3]
  Ki: 32 nM
[4]
  effect on OSBP protein levels: time-dependent reduction in OSBP protein levels
[4]; at 24 h
  reduction in OSBP: 69%
[5]; U87-MG versus normal astrocytes
  selectivity, malignant brain tumor cells versus normal astrocytes: 150 fold
[5]
  GI50: 0.047 nM
[6]
  GI50: 0.78 nM
[7]
  Ki: 21 nM
[8]
  GI50: 1.73 nM
[9]
  more sensitive after OSBP knockdown: 5.7 ×
[10]
  GI50: 0.3 nM
